Test results from paper PMC6541511 (Organic & biomolecular chemistry, 2019).

Key:
SUM149 = experiment: CellTiterGlo; assay type: cell-based; details: SUM149, read-out: SUM149 EC50
HMEC = experiment: CellTiterGlo; assay type: cell-based; details: Homo sapiens, read-out: HMEC EC50
MDA-MB-231 = experiment: CellTiterGlo; assay type: cell-based; details: Homo sapiens, MDA-MB-231, read-out: MDA-MB-231 EC50
[1] = Solubility / precipitation; details: 5–10 mM concentrations in DMSO, RT
T-47D = experiment: CellTiterGlo; assay type: cell-based; details: Homo sapiens, T47D, read-out: T-47D EC50

## CC(=O)O[C@H]1C(=O)[C@@]2(C)[C@H]([C@H](OC(=O)c3ccccc3)[C@]3(O)C[C@H](OC(=O)[C@H](O)[C@@H](NC(=O)c4ccccc4)c4ccccc4)C(C)=C1C3(C)C)[C@]1(OC(C)=O)CO[C@@H]1C[C@@H]2O [Taxol]
SUM149
  EC50: 0.01 µM
HMEC
  EC50: > 10 µM
MDA-MB-231
  EC50: 2 µM

## CC(C)[C@@H](C)/C=C/[C@@H](C)[C@H]1CC[C@@H]2[C@]1(C)CC[C@H]1[C@]23C=C[C@]2(C[C@@H](O)CC[C@]12C)OO3 [compound 3, ergosterol peroxide]
[1]
  time after which precipitation occurs: 168 h
SUM149
  EC50: 9 µM
HMEC
  EC50: > 20 µM
physchem
  solubility: < 50 µM
T-47D
  EC50: 19 µM
MDA-MB-231
  EC50: 18 µM

## COc1cccc2c1C(=O)c1c(O)c3c(c(O)c1C2=O)C[C@@](O)(C(=O)CO)C[C@@H]3O[C@H]1C[C@H](N)[C@H](O)[C@H](C)O1 [Doxorubicin]
SUM149
  EC50: 1 µM
HMEC
  EC50: > 10 µM
MDA-MB-231
  EC50: 1 µM

## CCCCCOC(=O)Nc1nc(=O)n([C@@H]2O[C@H](C)[C@@H](O)[C@H]2O)cc1F [Capecitabine]
SUM149
  EC50: 5 µM
HMEC
  EC50: 10 µM
MDA-MB-231
  EC50: 5 µM
